Test results taken from PubChem BioAssay (NCI).
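The compound was tested at five concentrations on cells cultured in 96-well plates, with a 48-hour exposure period. Abbreviation: GI50, concentration required for 50% inhibition of growth. TGI is the concentration that stops growth completely.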 *1 amine or outer side, *2 acyl side, *3 side chain or, on linkers, in order; H or OH if unused. Where a SMILES comes first, the peptide text is derived from it. Bridges are numbered along the chain shown (N, C = ends). [ ]: non-standard residue; d: D form. The star is where a group is joined. Phe(3-Me) = Cc1cccc(C[C@H](N)C(=O)O)c1; NH(4-Cl-2-F-phenyl) = Fc1cc(Cl)ccc1N*; Pro(4R-Me) = C[C@H]1CN[C@H](C(=O)O)C1; Hyp = O=C(O)[C@@H]1C[C@@H](O)CN1; aThr = C[C@H](O)[C@H](N)C(=O)O; Pip = O=C(O)[C@@H]1CCCCN1; CO = O=C([*:1])[*:2]

Experiments:
Test in all cases: NCI anticancer screen, dose series, 48 h
[1] = test system: UACC-257 melanoma
[2] = test system: MDA-MB-435
[3] = test system: IGROV1 ovarian
[4] = test system: LOX IMVI melanoma
[5] = test system: SK-MEL-5 melanoma
[6] = test system: CCRF-CEM leukemia
[7] = test system: HL-60(TB) leukemia
[8] = test system: NCI-H226 lung
[9] = test system: OVCAR-5 ovarian
[10] = test system: NCI-H522 lung
[11] = test system: EKVX NSCLC
[12] = test system: U251 CNS
[13] = test system: COLO 205 colon
[14] = test system: OVCAR-3 ovarian
[15] = test system: HOP-92 NSCLC
[16] = test system: SK-MEL-2 melanoma
[17] = test system: RXF 393 renal
[18] = test system: MALME-3M melanoma
[19] = test system: PC-3 prostate
[20] = test system: SF-539 CNS
[21] = test system: ACHN renal
[22] = test system: HS 578T breast
[23] = test system: CAKI-1 renal
[24] = test system: NCI-H460 lung
[25] = test system: KM12 colon
[26] = test system: SNB-75 CNS
[27] = test system: NCI-H23 lung
[28] = test system: NCI/ADR-RES ovarian
[29] = test system: MCF7 breast
[30] = test system: SK-OV-3 ovarian
[31] = test system: UACC-62 melanoma
[32] = test system: MOLT-4 leukemia
[33] = test system: SNB-19 CNS
[34] = test system: SF-268 CNS
[35] = test system: T-47D breast
[36] = test system: BT-549 breast
[37] = test system: MDA-MB-231 breast
[38] = test system: OVCAR-4 ovarian
[39] = test system: 786-0 renal
[40] = test system: HCT-116 colon
[41] = test system: DU-145 prostate
[42] = test system: TK-10 renal
[43] = test system: HCT-15 colon
[44] = test system: M14 melanoma
[45] = test system: RPMI-8226 leukemia
[46] = test system: HCC-2998 colon
[47] = test system: UO-31 renal
[48] = test system: SF-295 CNS
[49] = test system: K-562 leukemia
[50] = test system: A498 renal
[51] = test system: SN12C renal
[52] = test system: SR leukemia
[53] = test system: SW-620 colon
[54] = test system: HT29 colon
[55] = test system: OVCAR-8 ovarian
[56] = test system: SK-MEL-28 melanoma
[57] = test system: A549 NSCLC
[58] = test system: HOP-62 NSCLC

Compound `Cc1cccc(C[C@H](NC(=O)Nc2ccc(Cl)cc2F)C(=O)N[C@@H]2C(=O)N3C[C@H](O)C[C@H]3C(=O)N3CCCC[C@H]3C(=O)N[C@@H](C)C(=O)N3C[C@H](C)C[C@H]3C(=O)O[C@H]2C)c1` ({NH(4-Cl-2-F-phenyl)-CO}-[Phe(3-Me)][aThr][Hyp][Pip]A[Pro(4R-Me)]; ester 2-C) has a GI50 [1] of 388 nM, a TGI [1] of 2200 nM and a GI50 [2] of 438 nM. For the same compound, the TGI [2] was 1740 nM, the GI50 [3] was 919 nM and the TGI [3] was 2980 nM. It also gave a GI50 [4] of 670 nM, a TGI [4] of 2160 nM and a GI50 [5] of 492 nM. For the same compound, the TGI [5] was 1700 nM, the GI50 [6] was 520 nM and the TGI [6] was 12000 nM. It also gave a GI50 [7] of 322 nM, a TGI [7] of 1790 nM and a GI50 [8] of 511 nM. The TGI [8] was 2630 nM, the GI50 [9] was 554 nM and the TGI [9] was 2360 nM. It also gave a GI50 [10] of 464 nM, a TGI [10] of 2600 nM and a GI50 [11] of 860 nM. The TGI [11] was 8040 nM, the GI50 [12] was 440 nM and the TGI [12] was 7770 nM. The GI50 [13] was 344 nM, the TGI [13] was 1360 nM and the GI50 [14] was 438 nM. For the same compound, the TGI [14] was 1750 nM, the GI50 [15] was 525 nM and the TGI [15] was 3140 nM. It also gave a GI50 [16] of 635 nM, a TGI [16] of 2370 nM and a GI50 [17] of 1310 nM. The TGI [17] was 2960 nM, the GI50 [18] was 553 nM and the TGI [18] was 2190 nM. It also gave a GI50 [19] of 365 nM, a TGI [19] of 1850 nM and a GI50 [20] of 733 nM. For the same compound, the TGI [20] was 2290 nM, the GI50 [21] was 2110 nM and the TGI [21] was 6160 nM. It also gave a GI50 [22] of 455 nM, a TGI [22] of 3580 nM and a GI50 [23] of 807 nM. It also gave a TGI [23] of 5580 nM, a GI50 [24] of 398 nM and a TGI [24] of 2460 nM. The GI50 [25] was 788 nM, the TGI [25] was 2490 nM and the GI50 [26] was 544 nM. It also gave a TGI [26] of 4800 nM, a GI50 [27] of 551 nM and a TGI [27] of 3720 nM. It also gave a GI50 [28] of 11000 nM, a TGI [28] of 33400 nM and a GI50 [29] of 391 nM. It also gave a TGI [29] of 3000 nM, a GI50 [30] of 501 nM and a TGI [30] of 3520 nM. The GI50 [31] was 505 nM, the TGI [31] was 1960 nM and the GI50 [32] was 876 nM. For the same compound, the TGI [32] was 6280 nM, the GI50 [33] was 381 nM and the TGI [33] was 11300 nM. The GI50 [34] was 499 nM, the TGI [34] was 4020 nM and the GI50 [35] was 415 nM. For the same compound, the TGI [35] was 4840 nM, the GI50 [36] was 540 nM and the TGI [36] was 2740 nM. The GI50 [37] was 429 nM, the TGI [37] was 1710 nM and the GI50 [38] was 324 nM. It also gave a TGI [38] of 2680 nM, a GI50 [39] of 1280 nM and a TGI [39] of 7690 nM. The GI50 [40] was 404 nM, the TGI [40] was 1660 nM and the GI50 [41] was 511 nM. It also gave a TGI [41] of 9840 nM, a GI50 [42] of 1780 nM and a TGI [42] of 10100 nM. For the same compound, the GI50 [43] was 1930 nM, the TGI [43] was 4340 nM and the GI50 [44] was 487 nM. For the same compound, the TGI [44] was 2190 nM, the GI50 [45] was 128 nM and the TGI [45] was 1630 nM. For the same compound, the GI50 [46] was 468 nM, the TGI [46] was 1770 nM and the GI50 [47] was 2140 nM. It also gave a TGI [47] of 7680 nM, a GI50 [48] of 416 nM and a TGI [48] of 1800 nM. It also gave a GI50 [49] of 221 nM, a TGI [49] greater than 33700 nM and a GI50 [50] of 327 nM. It also gave a TGI [50] of 2150 nM, a GI50 [51] of 393 nM and a TGI [51] of 4600 nM. For the same compound, the GI50 [52] was 546 nM, the TGI [52] was 3550 nM and the GI50 [53] was 595 nM. For the same compound, the TGI [53] was 10900 nM, the GI50 [54] was 547 nM and the TGI [54] was 3060 nM. For the same compound, the GI50 [55] was 435 nM, the TGI [55] was 15600 nM and the GI50 [56] was 728 nM. The TGI [56] was 2080 nM, the GI50 [57] was 505 nM and the TGI [57] was 12100 nM. For the same compound, the GI50 [58] was 484 nM and the TGI [58] was 3620 nM.
